In patent US12629370B2, “Treatment of prostate cancer” (Sumitomo Pharma Co., Ltd., priority 2016, dated 2026):

How the values were obtained:
serum LH = test: Example 7: serum LH in healthy men; format: in vivo, human
Experimental: (§1) FSH, DHT, and insulin-like growth factor 1 (IGF-1; Parts 3 and 4 only) were measured in a subset of samples. Serum testosterone was assayed using a conventional immunoassay for screening (LLOQ=0.4 nmol/L). A validated LC/MS/MS method, with an LLOQ of 0.173 nmol/L and a ULOQ of 10.425 nmol/L, was used for all subsequent baseline (i.e., the subject's serum hormone levels prior to treatment commencing) and postdose measurements.

serum DHT = test: Example 7: serum DHT in healthy men; format: in vivo, human
Experimental: as §1

[1] = test system: patients with advanced prostate cancer; test: Example 8: quality of life, Aging Male Survey (AMS); format: in vivo, human; settings: for AMS total score, mean: Baseline
Experimental: Quality of life (QoL) was assessed throughout the study and the follow-up period. The 25-item Prostate Cancer Module of the European Organization for Research and Treatment of Cancer Quality of Life Questionnaire (EORTC QLQ-PR25), Aging Male Survey (AMS), and core 30-item EORTC Quality of Life Questionnaire (EORTC QLQ-C30) were completed at screening, day 1 of weeks 5, 13, 25, 37, and 49, and, if applicable, at the follow-up visits.

LH = test: Example 9: LH; format: in vivo, human
Experimental: Eligible male patients were aged ≥18 years with a histologically confirmed diagnosis of localized, intermediate-risk prostate cancer, for whom 6-month neoadjuvant and adjuvant androgen deprivation therapy (ADT) to external beam radiation therapy (EBRT) was indicated. The criteria for establishing intermediate-risk prostate cancer included the presence of one of the following, without any high-risk feature: T2b-T2c disease, Gleason score 7, or prostate-specific antigen (PSA) 10-20 ng/mL. […] Based on investigator discretion and clinical assessment of the patient's overall medical and disease status, participation was allowed for older patients with high-risk disease (e.g., based on Gleason score or tumor status) who were deemed likely to benefit from 6 months of neoadjuvant/adjuvant ADT.
Both treatment arms received treatment for 24 weeks. […] EBRT began no later than day 1, week 17.
(§2) Patients were evaluated every 4 weeks during the treatment period (including day 1, week 25), at end of treatment (defined as week 29), during follow-up (week 33), and at end of study (EOS).
(§3) Samples for testosterone, luteinizing hormone (LH), FSH, and PSA concentrations were taken at screening, on day 1 of the first week (additionally days 2 and 4 for testosterone and LH), and on day 1 of weeks 2, 3, 5, 9, 13, 17, 21, 25, 29, 33, and 37 thereafter.

FSH = test: Example 9: FSH; format: in vivo, human
Experimental: (§4) Eligible male patients were aged ≥18 years with a histologically confirmed diagnosis of localized, intermediate-risk prostate cancer, for whom 6-month neoadjuvant and adjuvant androgen deprivation therapy (ADT) to external beam radiation therapy (EBRT) was indicated. The criteria for establishing intermediate-risk prostate cancer included the presence of one of the following, without any high-risk feature: T2b-T2c disease, Gleason score 7, or prostate-specific antigen (PSA) 10-20 ng/mL. Additional inclusion criteria included: EBRT scheduled to begin ≥12 weeks after baseline visit; screening serum testosterone >150 ng/dL (5.2 nmol/L); screening PSA concentration >2 ng/ml; body mass index ≥18.0 at screening or baseline (i.e., the subject's BMI prior to treatment commencing); Eastern Cooperative Oncology Group performance status of 0 or 1 at screening. Based on investigator discretion and clinical assessment of the patient's overall medical and disease status, participation was allowed for older patients with high-risk disease (e.g., based on Gleason score or tumor status) who were deemed likely to benefit from 6 months of neoadjuvant/adjuvant ADT. Most patients had intermediate-risk disease. However, a few patients, based on Gleason score or tumor, node, and metastasis staging system, were technically of higher than intermediate risk.
(§5) Both treatment arms received treatment for 24 weeks. Patients remained on treatment for at least 12 weeks before the start of external beam radiation treatment (EBRT), which was initiated for most patients between Week 13, Day 1 and Week 15, Day 1. EBRT began no later than day 1, week 17.
as §2
as §3, with “thereafter. […] Suppression of FSH was less profound than that of LH, but consistent with the literature, and was greater than that observed with GnRH agonists.” for “thereafter.”

[2] = test system: patients with intermediate-risk prostate cancer; test: Example 9: quality of life (EORTC QLQ-C30, QLQ-PR25, AMS); format: in vivo, human
Experimental: as §4, §5
Quality of Life (QoL) was assessed via the core 30-item European Organisation for Research and Treatment of Cancer quality of life questionnaire (EORTC QLQ-C30), the 25-item prostate cancer module EORTC questionnaire (EORTC QLQ-PR25), and the aging male survey (AMS). QoL assessments were completed at screening, on day 1 of weeks 1, 5, 13, and 25, and at weeks 29, 33, and 37.

rats = settings: rat, in vivo
healthy men = test: Example 7: safety and tolerability in healthy men
Experimental: The 40 mg dose was administered once per day with a single load dose of 360 mg on Day 1 of the 14 days of treatment administration. For the 20 mg dosages, one 20 mg dose was administered with loading doses of 320 mg on Day 1, 240 mg on Day 2, and 160 mg on Day 3, and the other 20 mg dose was administered with loading doses of 320 mg on Day 1 and 160 mg on Day 2. […] The 40 mg dose was administered with loading doses of 320 mg and 160 mg on Days 1 and 2 of treatment, respectively.

[3] = from baseline (day 1) to week 25

CONC(=O)Nc1ccc(-c2sc3c(c2CN(C)C)c(=O)n(-c2ccc(OC)nn2)c(=O)n3Cc2c(F)cccc2F)cc1 [Compound 1, N-(4-(1-(2,6-difluorobenzyl)-5-((dimethylamino)methyl)-3-(6-methoxy-3-pyridazinyl)-2,4-dioxo-1,2,3,4-tetrahydrothieno[2,3-d]pyrimidin-6-yl)phenyl)-N′-methoxyurea]
mean serum LH at end of 16 days (serum LH; Part 2, 80 mg, baseline 4.57 IU/L): 0.33 IU/L | mean serum LH at end of 16 days (serum LH; Part 2, 180 mg, baseline 3.90 IU/L): 0.23 IU/L | time postdose at which mean serum DHT began to decrease (serum DHT; Part 1 single doses 80-360 mg): 2 h | mean serum dihydrotestosterone at end of 16 days (serum DHT; Part 2, 80 mg, baseline 1.883 nmol/L): 1.095 nmol/L | mean serum dihydrotestosterone at end of 16 days (serum DHT; Part 2, 180 mg, baseline 1.882 nmol/L): 0.865 nmol/L | AMS total score, mean ([1]; 80 mg QD): 29.8 | AMS total score after treatment, mean percent change from baseline ([1]; 80 mg QD, EOS): 21.9% | AMS total score after treatment, mean percent change from baseline ([1]; 80 mg QD, EOT): 30.5% | AMS total score after treatment, mean percent change from baseline ([1]; 80 mg QD, Follow-up): 31.8% | AMS total score, mean percent change from baseline ([1]; 80 mg QD, W5, D1): 3.9% | AMS total score, mean percent change from baseline ([1]; 80 mg QD, W13, D1): 14.8% | AMS total score, mean percent change from baseline ([1]; 80 mg QD, W25, D1): 20.3% | AMS total score, mean percent change from baseline ([1]; 80 mg QD, W49, D1): 30.1% | AMS total score, mean ([1]; 120 mg QD): 29.9 | AMS total score after treatment, mean percent change from baseline ([1]; 120 mg QD, EOS): 25.3% | AMS total score after treatment, mean percent change from baseline ([1]; 120 mg QD, Follow-up): 25.2% | AMS total score, mean percent change from baseline ([1]; 120 mg QD, W5, D1): 10.9% | AMS total score, mean percent change from baseline ([1]; 120 mg QD, W13, D1): 17.3% | AMS total score, mean percent change from baseline ([1]; 120 mg QD, W25, D1): 20.4% | AMS total score, mean percent change from baseline ([1]; 120 mg QD, W37, D1): 24.5% | AMS total score, mean percent change from baseline ([1]; 120 mg QD, W49, D1): 24.4% | QOL (AMS, EORTC QLQ-PR25 sexual activity) during 12 week recovery ([1]; after discontinuation of 48 weeks of treatment): appeared to improve more in the Compound 1 group than the leuprorelin group | Median LH (LH; Baseline): 4.7 mlU/mL | Median LH (LH; Week 24): 0.1 mlU/mL | mean LH level (LH; Week 25, Day 1): 0.325 IU/L | Median LH (LH; Week 28/EOT visit): 3.1 mlU/mL | Median LH (LH; Week 32/follow-up): 8.3 mlU/mL | Median LH (LH; Week 36/EOS): 10.7 mlU/mL | FSH level before administration (FSH; Baseline): 11.826 IU/L | FSH level (FSH; Week 2, Day 1): 2.363 IU/L | mean FSH level (FSH; Week 25, Day 1): 1.475 IU/L | Hormonal treatment-related symptoms, Mean (SD) change [2, 3]: 13.4 (12.1) | Sexual activity, Mean (SD) change [2, 3]: −19.7 (29.4) | Global health/QoL, Mean (SD) change ([2]; from baseline to week 36 (EOS)): −7.7 (17.8) | Hormonal treatment-related symptoms, Mean (SD) change ([2]; from baseline to week 36 (EOS)): 8.5 (11.3) | Sexual activity, Mean (SD) change ([2]; from baseline to week 36 (EOS)): −7.3 (30.0) | Global health/QoL, Mean (SD) change ([2]; from week 25 to week 36): 2.3 (16.6) | Hormonal treatment-related symptoms, Mean (SD) change ([2]; from week 25 to week 36): −5.0 (10.3) | Sexual activity, Mean (SD) change ([2]; from week 25 to week 36): 12.1 (21.8) | QOL (AMS and sexual activity scores) from EOT through EOS ([2]; in vivo): appeared to improve more in the Compound 1 than the degarelix group | adverse effect observed in non-clinical toxicity studies (rats): phospholipidosis | most common treatment emergent adverse events (healthy men; across all dose cohorts): bradycardia, hot flush, and headache | changes in QT/QTc intervals (healthy men; in vivo): consistent with those described in the literature with other medical castration agents | most common drug-related TEAE (healthy men; in vivo): hot flash | overall safety and tolerability (healthy men; single and multiple doses): safe and well tolerated | deaths, SAEs or severe AEs (healthy men; single dose or multiple dose for 14 or 28 days): no deaths, serious adverse events (SAEs), or severe AEs | transaminases (healthy men; without symptoms or changes in total bilirubin): Mild to moderate transaminase elevations
